Measured values reported in publication PMC10652723 (ACS Omega, 2023).
“Also recorded” adds a separate entry of the source.

Columns and labels:
neural stem cells = conditions: result in words; cited from earlier work
[1] = target: SARS-CoV-2 RNA polymerase (RdRp) (Severe acute respiratory syndrome coronavirus 2, UniProt P0DTD1); test: RdRp inhibition assay; type: biochemical; conditions: Figure 4; result in words
SARS-CoV-2 = type: cell-based; conditions: for anti-SARS-CoV-2 activity (library screening): tetrazolium dye method, result in words
[2] = tested on: 3-chymotrypsin-like (3CL) protease of SARS-CoV-2; conditions: result in words; cited from earlier work
VeroE6/TMPRSS2 cells = conditions: at a concentration of 100 μM; result in words

| Structure (SMILES) | neuronal differentiation activity (neural stem cells) | Inhibitory effect on SARS-CoV-2 RdRp activity [1] | anti-SARS-CoV-2 activity (library screening) (SARS-CoV-2) | inhibition of 3CL protease of SARS-CoV-2 [2] | toxicity (VeroE6/TMPRSS2 cells) | Microscopic observation of cell survival (SARS-CoV-2) |
| --- | --- | --- | --- | --- | --- | --- |
| CC1=C(C/C=C(\C)CC/C=C(\C)Cc2cccc3ccccc23)C(=O)c2ccccc2C1=O [Compound 2] | induce neural stem cells to differentiate into neurons | inhibited RdRp in a concentration-dependent manner | anti-SARS-CoV-2 activity was observed |  |  |  |
| CC1=CC(=O)c2ccccc2C1=O [vitamin K3, menadione] |  |  |  | inhibit |  |  |
| CC1=C(C/C=C(\C)CC/C=C(\C)Cn2cnc3c(Cl)ncnc32)C(=O)c2ccccc2C1=O [Compound 16, 2-((2E,6E)-8-(6-Chloro-9H-purin-9-yl)-3,7-dimethylocta-2,6-dien-1-yl)-3-methylnaphthalene-1,4-dione] |  | inhibited RdRp in a concentration-dependent manner |  |  | no toxicity |  |
| CC1=C(C/C=C(\C)CC/C=C(\C)Cc2cccc(C)c2)C(=O)c2ccccc2C1=O [Compound 1] | higher neuronal differentiation activity than natural vitamin K homologues; also recorded: induce neural stem cells to differentiate into neurons | inhibited RdRp in a concentration-dependent manner | anti-SARS-CoV-2 activity was observed |  |  | survived as well as control A |
